Data: patent publication US10538518B2, “Processes for preparing an FGFR inhibitor” (Principia Biopharma, Inc., priority 2015, dated 2020)

Columns and labels:
Format in all cases: physicochemical
[1] = Exposure to elevated relative humidity, form checked by XRPD; details: 93% relative humidity, four days, ambient temperature
Description: XRPD patterns were obtained with a PANalytical X′Pert PRO MPD diffractometer using an incident beam of Cu radiation (1.54059 angstroms) produced using an Optix long, fine-focus source. The diffractometer was configured using the symmetric Bragg-Brentano geometry. Prior to analysis, a silicon sample (NIST SRM 640e) was analyzed to verify the observed position of the Si 111 peak was consistent with the NIST-certified position. A specimen of the sample was prepared as a thin, circular layer centered on a silicon zero-background substrate. Antiscatter slits (SS) were used to minimize the background generated by air. Soller slits for the incident and diffracted beams were used to minimize broadening fro axial divergence. Diffraction patterns were collected using a scanning position-sensitive detector located 240 mm from the sample.

[2] = Dynamic vapor sorption/desorption (DVS) isotherm
Description: Dynamic Vapor Sorption/Desorption (DVS)
Dynamic Vapor Sorption/Desorption (DVS) data was collected on a VTI SGA-100 Vapor Sorption Analyzer, using NaCl and PVP as calibration standards. Samples were not dried prior to analysis. Sorption and desorption data were collected over a range from 5% to 95% relative humidity (RH) at 10% RH increments under a nitrogen purge. The equilibrium criterion used for analysis was less than 0.01000% weight change in 5 minutes with a maximum equilibration time of 3 hours. Data were not corrected for the initial moisture content of the samples.

[3] = Thermogravimetric analysis (TGA); details: up to 200° C.
Description: Thermal Gravimetric Analysis
Thermal Gravimetric Analysis (TGA) was performed using a TA Instruments Discovery thermographic analyzer, with temperature calibration being performed using nickel and Alumel™. Each sample was placed in a pan, hermetically sealed, the lid pierced, and then inserted into the thermal gravimetric furnace which was heated under nitrogen.

## C=CC(=O)N1CCN(CCCn2c(=O)c(-c3c(Cl)c(OC)cc(OC)c3Cl)cc3cnc(NC)nc32)CC1 [Form 1, 6-(2,6-dichloro-3,5-dimethoxyphenyl)-2-(methylamino)-8-[3-[4-(prop-2-enoyl)piperazin-1-yl]propyl]-7H,8H-pyrido[2,3-d]pyrimidin-7-one]
[1]
  change in form observable by XRPD (physical stability at elevated humidity): did not result in any changes in form observable by XRPD
[2]; sample evaluated after exposure to humidity in the DVS testing
  phase change after DVS testing, by XRPD analysis: a phase change did not occur
[2]; sorption/desorption 5% to 95% RH
  hygroscopicity (DVS: weight gain in each sorption cycle, hysteresis upon desorption): not hygroscopic
[2]; up to a percent relative humidity of about 95% (94.79%)
  weight percent change (DVS isotherm): ≤ 0.31 wt %
[3]
  weight loss (TGA): ≤ 0.20%
